Measured values as given in BindingDB's records for doi:10.1016/j.bmcl.2008.01.028 (Nih, 2008).

Target: cAMP-specific 3',5'-cyclic phosphodiesterase 4A (Homo sapiens, UniProt P27815)
Assay: PDE4A Inhibition Assay
Settings: not given
Protocol: Inhibition of PDE4A was performed using IMAP technology (Molecular Devices, CA). PDE4A1A mixture was dispensed into 1536-well black/solid bottom assay plates (Greiner Bio-One North America, NC) using a Flying Reagent Dispenser (Aurora Discovery, CA). The plates were centrifuged at 1000 rpm for 30s and compound was transferred to the assay plate using a Kalypsys pin tool. After incubation, cAMP was dispensed into the plates to initiate the reaction. IMAP binding reagent was then added to the assay plate after the reaction.

Sequence of cAMP-specific 3',5'-cyclic phosphodiesterase 4A (P27815 whole entry): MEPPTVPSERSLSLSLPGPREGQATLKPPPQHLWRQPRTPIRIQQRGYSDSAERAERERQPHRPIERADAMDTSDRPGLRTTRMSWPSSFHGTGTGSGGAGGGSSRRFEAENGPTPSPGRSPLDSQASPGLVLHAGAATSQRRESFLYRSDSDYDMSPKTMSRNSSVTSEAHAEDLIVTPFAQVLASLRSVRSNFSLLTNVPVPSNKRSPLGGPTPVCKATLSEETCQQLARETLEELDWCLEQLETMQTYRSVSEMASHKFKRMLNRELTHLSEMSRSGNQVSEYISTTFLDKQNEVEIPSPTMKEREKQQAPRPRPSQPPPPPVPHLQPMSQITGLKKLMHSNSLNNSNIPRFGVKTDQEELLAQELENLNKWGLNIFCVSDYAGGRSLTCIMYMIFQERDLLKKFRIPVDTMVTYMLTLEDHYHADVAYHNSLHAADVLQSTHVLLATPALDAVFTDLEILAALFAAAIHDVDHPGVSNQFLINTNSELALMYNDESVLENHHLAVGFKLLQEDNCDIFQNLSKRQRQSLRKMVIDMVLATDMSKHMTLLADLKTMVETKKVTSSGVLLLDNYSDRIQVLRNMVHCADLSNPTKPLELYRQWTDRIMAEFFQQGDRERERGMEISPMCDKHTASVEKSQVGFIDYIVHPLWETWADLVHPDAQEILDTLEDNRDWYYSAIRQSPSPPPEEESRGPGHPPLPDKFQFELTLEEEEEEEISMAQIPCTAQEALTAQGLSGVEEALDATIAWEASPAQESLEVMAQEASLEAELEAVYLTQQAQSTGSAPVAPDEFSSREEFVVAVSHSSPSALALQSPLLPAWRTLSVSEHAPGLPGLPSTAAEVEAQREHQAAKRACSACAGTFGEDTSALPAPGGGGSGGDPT

First: COc1ccc(C2=Nn3c(nnc3-c3ccc(OC)cc3)SC2)cc1
Second: COc1ccc(C2=Nn3c(nnc3-c3cccc(OC)c3)SC2)cc1 [triazolothiadiazine, 8B]
The IC50 of the first is 1.5-fold lower: 8.4 µM for the first, 12.6 µM for the second. The first is the more potent here.

COc1cccc(-c2nnc3n2N=C(c2cc(OC)ccc2OC)CS3)c1 and COc1cccc(-c2nnc3n2N=C(c2ccc(OC)cc2OC)CS3)c1 [triazolothiadiazine, 9B] are within 1.5-fold of each other in IC50: 12.6 µM for the first, 14.1 µM for the second.

Going from COc1cccc(C2=Nn3c(nnc3-c3ccccc3C)SC2)c1 [triazolothiadiazine, 7I] to COc1cccc(C2=Nn3c(nnc3-c3ccccc3O)SC2)c1 [triazolothiadiazine, 7K], the IC50 rises from 3.2 µM to 14.1 µM (4.4-fold). The first is the more potent here.

First: CCOc1ccccc1-c1nnc2n1N=C(c1cccc(OC)c1)CS2 [triazolothiadiazine, 7J]
Second: CCOc1ccccc1-c1nnc2n1N=C(c1ccc(OC)cc1)CS2 [triazolothiadiazine, 8J]
The IC50 of the first is 2.5-fold higher: 11.2 µM for the first, 4.5 µM for the second.

First: COc1ccc(C2=Nn3c(nnc3-c3ccccc3OC)SC2)cc1 [triazolothiadiazine, 8A]
Second: COc1ccc(C2=Nn3c(nnc3-c3ccccc3C)SC2)cc1 [triazolothiadiazine, 8I]
The IC50 of the first is higher: greater than 20 µM for the first, 12.5 µM for the second. The second is the more potent here.

COc1ccc(C2=Nn3c(nnc3-c3cccc(OC)c3OC)SC2)cc1 [triazolothiadiazine, 8D] and COc1ccc(C2=Nn3c(nnc3-c3ccc(OC)cc3OC)SC2)cc1 [triazolothiadiazine, 8E] cannot be ordered by IC50: greater than 20 µM for the first, greater than 20 µM for the second.

First: COc1ccc(C2=Nn3c(nnc3-c3cc(OC)ccc3OC)SC2)cc1 [triazolothiadiazine, 8F]
Second: COc1ccc(-c2nnc3n2N=C(c2cc(OC)ccc2OC)CS3)cc1 [triazolothiadiazine, 10C]
The IC50 of the first is 5.9-fold lower: 1.7 µM for the first, 10.1 µM for the second. The first is the more potent here.

Going from COc1ccc(C2=Nn3c(nnc3-c3ccc(OC)c(OC)c3)SC2)cc1 [triazolothiadiazine, 8G] to COc1ccc(-c2nnc3n2N=C(c2c(OC)cccc2OC)CS3)cc1 [triazolothiadiazine, 11C], the IC50 rises from 7.5 µM to 19.7 µM (2.6-fold). The first is the more potent here.

Compared with COc1ccc(C2=Nn3c(nnc3-c3cc(OC)cc(OC)c3)SC2)cc1 [triazolothiadiazine, 8H], COc1cc(OC)cc(-c2nnc3n2N=C(c2ccc(OC)cc2OC)CS3)c1 [triazolothiadiazine, 9H] is higher in IC50: 9.5 µM for the first, greater than 20 µM for the second. The first is the more potent here.

Going from COc1ccc(C2=Nn3c(nnc3-c3ccccc3O)SC2)cc1 [triazolothiadiazine, 8K] to COc1ccc(C2=Nn3c(nnc3-c3ccccc3O)SC2)c(OC)c1 [triazolothiadiazine, 9K], the IC50 rises from 8.4 µM to greater than 20 µM. The first is the more potent here.

Going from COc1ccc(C2=Nn3c(nnc3-c3ccccc3OC)SC2)c(OC)c1 [triazolothiadiazine, 9A] to COc1ccc(OC)c(C2=Nn3c(nnc3-c3ccccc3OC)SC2)c1 [triazolothiadiazine, 10A], the IC50 falls from 15 µM to 8.9 µM (1.7-fold).

First: COc1ccc(-c2nnc3n2N=C(c2ccc(OC)cc2OC)CS3)cc1 [triazolothiadiazine, 9C]
Second: COc1ccc(C2=Nn3c(nnc3-c3ccc(OC)cc3OC)SC2)c(OC)c1 [triazolothiadiazine, 9E]
The IC50 of the first is lower: 13.4 µM for the first, greater than 20 µM for the second. The first is the more potent here.

Compared with COc1ccc(C2=Nn3c(nnc3-c3cccc(OC)c3OC)SC2)c(OC)c1 [triazolothiadiazine, 9D], COc1ccc(OC)c(C2=Nn3c(nnc3-c3cccc(OC)c3OC)SC2)c1 [triazolothiadiazine, 10D] is lower in IC50: greater than 20 µM for the first, 11.9 µM for the second. The second is the more potent here.

COc1ccc(C2=Nn3c(nnc3-c3cc(OC)ccc3OC)SC2)c(OC)c1 [triazolothiadiazine, 9F] and COc1ccc(-c2nnc3n2N=C(c2cc(OC)ccc2OC)CS3)c(OC)c1 [triazolothiadiazine, 10E] are within 1.5-fold of each other in IC50: 7.5 µM for the first, 5.3 µM for the second.

COc1ccc(C2=Nn3c(nnc3-c3ccc(OC)c(OC)c3)SC2)c(OC)c1 [triazolothiadiazine, 9G] and COc1ccc(OC)c(C2=Nn3c(nnc3-c3ccc(OC)c(OC)c3)SC2)c1 [triazolothiadiazine, 10G] are within 1.5-fold of each other in IC50: 6.7 µM for the first, 6.9 µM for the second.

Compared with COc1ccc(C2=Nn3c(nnc3-c3ccccc3C)SC2)c(OC)c1 [triazolothiadiazine, 9I], COc1ccc(OC)c(C2=Nn3c(nnc3-c3ccccc3C)SC2)c1 [triazolothiadiazine, 10I] is lower in IC50: greater than 20 µM for the first, 6.3 µM for the second. The second is the more potent here.

Compared with CCOc1ccccc1-c1nnc2n1N=C(c1ccc(OC)cc1OC)CS2 [triazolothiadiazine, 9J], CCOc1ccccc1-c1nnc2n1N=C(c1cc(OC)ccc1OC)CS2 [triazolothiadiazine, 10J] is lower in IC50: greater than 20 µM for the first, 13.4 µM for the second.

First: COc1ccc(OC)c(C2=Nn3c(nnc3-c3cc(OC)ccc3OC)SC2)c1 [triazolothiadiazine, 10F]
Second: COc1ccc(OC)c(-c2nnc3n2N=C(c2c(OC)cccc2OC)CS3)c1 [triazolothiadiazine, 11F]
The IC50 of the first is lower: 11.9 µM for the first, greater than 20 µM for the second. The first is the more potent here.

First: COc1cc(OC)cc(-c2nnc3n2N=C(c2cc(OC)ccc2OC)CS3)c1 [triazolothiadiazine, 10H]
Second: COc1cc(OC)cc(-c2nnc3n2N=C(c2c(OC)cccc2OC)CS3)c1 [triazolothiadiazine, 11H]
The IC50 of the first is 1.5-fold lower: 12.7 µM for the first, 19.6 µM for the second. The first is the more potent here.

COc1ccc(OC)c(C2=Nn3c(nnc3-c3ccccc3O)SC2)c1 [triazolothiadiazine, 10K] and COc1cccc(OC)c1C1=Nn2c(nnc2-c2ccccc2O)SC1 [triazolothiadiazine, 11K] cannot be ordered by IC50: greater than 20 µM for the first, greater than 20 µM for the second.

COc1ccccc1-c1nnc2n1N=C(c1c(OC)cccc1OC)CS2 [triazolothiadiazine, 11A] and CCOc1ccccc1-c1nnc2n1N=C(c1c(OC)cccc1OC)CS2 [triazolothiadiazine, 11J] cannot be ordered by IC50: greater than 20 µM for the first, greater than 20 µM for the second.

COc1cccc(-c2nnc3n2N=C(c2c(OC)cccc2OC)CS3)c1 [triazolothiadiazine, 11B] and COc1ccc(-c2nnc3n2N=C(c2c(OC)cccc2OC)CS3)c(OC)c1 [triazolothiadiazine, 11E] cannot be ordered by IC50: greater than 20 µM for the first, greater than 20 µM for the second.

Compared with COc1cccc(-c2nnc3n2N=C(c2c(OC)cccc2OC)CS3)c1OC [triazolothiadiazine, 11D], COc1ccc(-c2nnc3n2N=C(c2c(OC)cccc2OC)CS3)cc1OC [triazolothiadiazine, 11G] is lower in IC50: greater than 20 µM for the first, 14.1 µM for the second.

COc1cccc(OC)c1C1=Nn2c(nnc2-c2ccccc2C)SC1 [triazolothiadiazine, 11I] showed an IC50 of 14.1 µM.

Same assay, conditions: pH 7.2; 22 °C

First: COc1cccc(-c2nnc3n2N=C(c2ccc(OC)c(OC)c2)CS3)c1 [triazolothiadiazine, 5B]
Second: COc1cccc(C2=Nn3c(nnc3-c3ccc(OC)c(OC)c3)SC2)c1 [triazolothiadiazine, 7G]
The IC50 of the first is 71-fold lower: 0.126 µM for the first, 9 µM for the second.

Going from COc1ccc(-c2nnc3n2N=C(c2ccc(OC)c(OC)c2)CS3)cc1 [triazolothiadiazine, 5C] to COc1ccc(-c2nnc3n2N=C(c2cccc(OC)c2)CS3)cc1 [triazolothiadiazine, 7C], the IC50 rises from 0.0889 µM to 8.4 µM (94-fold).

First: COc1ccc(-c2nnc3n2N=C(c2ccc(OC)c(OC)c2)CS3)c(OC)c1 [triazolothiadiazine, 5E]
Second: COc1ccc(C2=Nn3c(nnc3-c3ccc(OC)c(OC)c3)SC2)cc1OC [triazolothiadiazine, 5G]
The IC50 of the first is 2.2-fold lower: 0.079 µM for the first, 0.177 µM for the second.

First: COc1cc(OC)cc(-c2nnc3n2N=C(c2ccc(OC)c(OC)c2)CS3)c1 [triazolothiadiazine, 5H]
Second: COc1cccc(C2=Nn3c(nnc3-c3cc(OC)cc(OC)c3)SC2)c1 [triazolothiadiazine, 7H]
The IC50 of the first is 270-fold lower: 0.05 µM for the first, 13.4 µM for the second. The first is the more potent here.

Compared with COc1ccccc1C1=Nn2c(nnc2-c2ccccc2OC)SC1 [triazolothiadiazine, 6A], CCOc1ccccc1-c1nnc2n1N=C(c1ccccc1OC)CS2 [triazolothiadiazine, 6J] is higher in IC50: 20 µM for the first, greater than 20 µM for the second.

COc1cccc(-c2nnc3n2N=C(c2ccccc2OC)CS3)c1 [triazolothiadiazine, 6B] and COc1cccc(C2=Nn3c(nnc3-c3ccccc3OC)SC2)c1 [triazolothiadiazine, 7A] are within 1.5-fold of each other in IC50: 13.4 µM for the first, 12 µM for the second.

COc1ccc(-c2nnc3n2N=C(c2ccccc2OC)CS3)cc1 [triazolothiadiazine, 6C] and COc1ccc(-c2nnc3n2N=C(c2ccccc2OC)CS3)c(OC)c1 [triazolothiadiazine, 6E] are within 1.5-fold of each other in IC50: 14.1 µM for the first, 19.7 µM for the second.

First: COc1ccccc1C1=Nn2c(nnc2-c2cccc(OC)c2OC)SC1 [triazolothiadiazine, 6D]
Second: COc1ccc(OC)c(-c2nnc3n2N=C(c2ccccc2OC)CS3)c1 [triazolothiadiazine, 6F]
The IC50 of the first is higher: greater than 20 µM for the first, 19.6 µM for the second.

First: COc1ccc(-c2nnc3n2N=C(c2ccccc2OC)CS3)cc1OC [triazolothiadiazine, 6G]
Second: COc1cc(OC)cc(-c2nnc3n2N=C(c2ccccc2OC)CS3)c1 [triazolothiadiazine, 6H]
The IC50 of the first is 1.5-fold lower: 8.9 µM for the first, 13.4 µM for the second.

Going from COc1ccccc1C1=Nn2c(nnc2-c2ccccc2C)SC1 [triazolothiadiazine, 6I] to COc1ccccc1C1=Nn2c(nnc2-c2ccccc2O)SC1 [triazolothiadiazine, 6K], the IC50 rises from 14.1 µM to greater than 20 µM. The first is the more potent here.

COc1cccc(C2=Nn3c(nnc3-c3cccc(OC)c3)SC2)c1 [triazolothiadiazine, 7B] and COc1cccc(C2=Nn3c(nnc3-c3ccc(OC)cc3OC)SC2)c1 [triazolothiadiazine, 7E] are within 1.5-fold of each other in IC50: 12.6 µM for the first, 13.4 µM for the second.

First: COc1cccc(C2=Nn3c(nnc3-c3cccc(OC)c3OC)SC2)c1 [triazolothiadiazine, 7D]
Second: COc1cccc(C2=Nn3c(nnc3-c3cc(OC)ccc3OC)SC2)c1 [triazolothiadiazine, 7F]
The IC50 of the first is higher: greater than 20 µM for the first, 8 µM for the second.
